Test results taken from patent publication US8226986B2 (priority 2006, dated 2012).
Like-named read-outs stand apart in the source and are kept apart here. Marks after values point to notes of the source that are not given here.

Tests used:
[1] = test system: aortic occlusion-induced ischemia/reperfusion (I/R) injury; format: in vivo, pig; settings: median, initial study
[2] = test system: erectile dysfunction; settings: 0.25-80 umol/kg, Intracaver., before experiment; cited from earlier work
[3] = test system: Cerebral Ischemia; settings: 0.18 mmol/kg IP, 24 hours after MCAO; cited from earlier work
[4] = test system: vascular calcification; settings: 2.8 or 14 uM/day, daily; cited from earlier work
[5] = test system: myocardial ishemia-reperfusion injury; settings: 3 mg/kg IP, 15 min before LAD; cited from earlier work
[6] = test system: Gastric injury caused by NSAIDS; settings: 25, 50, 100, or 150 mol/kg IP, immediately prior; cited from earlier work
[7] = test system: inflammation; settings: 1, 5 and 10 mg/kg IP, 1-6 hours before study; cited from earlier work
[8] = test system: neutrophil adhesion, leukocyte-mediated inflam.; settings: cited from earlier work
[9] = test system: cardioprotectant; settings: 2.8 umol/kg IV, time zero; cited from earlier work
[10] = test system: Irritable bowel syndrome; settings: 25, 50, or 100 mg/kg IP, 10 minutes post IBS model; cited from earlier work
[11] = test system: myocardial ischemia-reperfusion injury; design: dose or concentration left out as unconfirmed; settings: 1 um, 10 um NaHS, perfusion, 10 min prior to LCA occlusion; cited from earlier work

In the case of `S` [NaHS, sodium hydrosulfide], the “Tail moment (comet assay, DNA damage)” value ([1]; 1 h after clamping) is reported as 0.12 §, the “Tail moment (comet assay, DNA damage)” value ([1]; 2 h after clamping) is reported as 0.12 § and the “Tail moment (comet assay, DNA damage)” value ([1]; 4 h after clamping) is reported as 0.14. For the same molecule, the “Tail moment (comet assay, DNA damage)” value ([1]; 8 h after clamping) was 0.14, the “Tail moment (comet assay, DNA damage)” value ([1]; Before clamping) was 0.11 and the “Tail moment (comet assay, DNA damage)” value ([1]; Before infusion) was 0.125. The “Benefit: intra-cavernous pressure” value [2] was “Increase intra-”, the infarct volume [3] was “increased to 150% of % of control” and the “Benefit: vascular calcification” value [4] was “reduces vascular”. The “Benefit: cardioprotection” value [5] was “cardioprotective opens”, the “Benefit: injury produced by NSAID and ASA” value [6] was “reduces injury” and the “Benefit: substance P levels” value [7] was “Increases substance P”. For the same molecule, the “Benefit: inflammation” value ([8]; 1-100 uMol/kg IP, 30 min prior to cargeenan injection) was “inhibits inflammation” and the “Benefit: central venous pressure” value [9] was “decrease central”.
In the case of `Nc1ccc(O)c(C(=O)Oc2ccc(-c3cc(=S)ss3)cc2)c1` [ATB-429], the “Benefit: pain and inflammation” value [10] is listed as “Pain killing and some”.
For sodium sulfide [Na2S], the “Benefit: inflammation” value ([8]; rat, in vivo, ip) is listed as “inhibits inflammation”.
In the case of `O.[Na+].[SH-]` [NaHS•xH2O], the “Benefit: infarct size” value [11] is listed as “NAHS, limited infarct”.
